Measurements: the CheMixHub ionic liquid set

Test: xn = mol fraction of the nth substance listed
Conditions: for electrical conductivity: 101 kPa; for viscosity: 100 kPa

CCCCCCCCCCCCOS(=O)(=O)[O-].[Na+] + O
Conditions | electrical conductivity [S/m] | viscosity [mPa·s]
283.1 K, x1 = 6.483e-05 | 0.01714 | –
283.1 K, x1 = 6.941e-05 | 0.01821 | –
283.1 K, x1 = 7.476e-05 | 0.01971 | –
283.1 K, x1 = 8.126e-05 | 0.02131 | –
283.1 K, x1 = 8.852e-05 | 0.02313 | –
283.1 K, x1 = 9.769e-05 | 0.02537 | –
283.1 K, x1 = 0.0001027 | 0.02665 | –
283.1 K, x1 = 0.0001088 | 0.02815 | –
283.1 K, x1 = 0.0001153 | 0.02986 | –
283.1 K, x1 = 0.0001225 | 0.03168 | –
283.1 K, x1 = 0.000131 | 0.03381 | –
283.1 K, x1 = 0.0001413 | 0.03617 | –
283.1 K, x1 = 0.0001516 | 0.03884 | –
283.1 K, x1 = 0.0001654 | 0.04066 | –
283.1 K, x1 = 0.0001807 | 0.04228 | –
283.1 K, x1 = 0.0001998 | 0.044 | –
283.1 K, x1 = 0.0002228 | 0.04584 | –
283.1 K, x1 = 0.0002339 | 0.0467 | –
283.1 K, x1 = 0.0002461 | 0.04778 | –
283.1 K, x1 = 0.0002595 | 0.04865 | –
283.1 K, x1 = 0.0002745 | 0.04994 | –
283.1 K, x1 = 0.0002921 | 0.05135 | –
288.15 K, x1 = 6.595e-05 | 0.01969 | –
288.15 K, x1 = 7.09e-05 | 0.02119 | –
288.15 K, x1 = 7.663e-05 | 0.02279 | –
288.15 K, x1 = 8.276e-05 | 0.0245 | –
288.15 K, x1 = 9e-05 | 0.02696 | –
288.15 K, x1 = 9.917e-05 | 0.02952 | –
288.15 K, x1 = 0.0001045 | 0.03102 | –
288.15 K, x1 = 0.0001107 | 0.03273 | –
288.15 K, x1 = 0.0001168 | 0.03465 | –
288.15 K, x1 = 0.0001244 | 0.03679 | –
288.15 K, x1 = 0.0001328 | 0.03924 | –
288.15 K, x1 = 0.0001424 | 0.04191 | –
288.15 K, x1 = 0.0001538 | 0.04459 | –
288.15 K, x1 = 0.0001668 | 0.0463 | –
288.15 K, x1 = 0.0001829 | 0.04792 | –
288.15 K, x1 = 0.0002013 | 0.04975 | –
288.15 K, x1 = 0.0002246 | 0.05212 | –
288.15 K, x1 = 0.0002357 | 0.05319 | –
288.15 K, x1 = 0.0002468 | 0.05427 | –
288.15 K, x1 = 0.0002602 | 0.05567 | –
288.15 K, x1 = 0.0002748 | 0.05707 | –
288.15 K, x1 = 0.0002912 | 0.05868 | –
293.15 K, x1 = 1.802e-05 | – | 0.968
293.15 K, x1 = 3.604e-05 | – | 0.97
293.15 K, x1 = 5.406e-05 | – | 0.971
293.15 K, x1 = 6.553e-05 | 0.02214 | –
293.15 K, x1 = 6.973e-05 | 0.02364 | –
293.15 K, x1 = 7.207e-05 | – | 0.974
293.15 K, x1 = 7.508e-05 | 0.02545 | –
293.15 K, x1 = 8.157e-05 | 0.02759 | –
293.15 K, x1 = 8.883e-05 | 0.03004 | –
293.15 K, x1 = 9.009e-05 | – | 0.978
293.15 K, x1 = 9.76e-05 | 0.03303 | –
293.15 K, x1 = 0.000103 | 0.03463 | –
293.15 K, x1 = 0.0001081 | – | 0.981
293.15 K, x1 = 0.0001091 | 0.03666 | –
293.15 K, x1 = 0.0001152 | 0.03858 | –
293.15 K, x1 = 0.0001228 | 0.04104 | –
293.15 K, x1 = 0.0001261 | – | 0.984
293.15 K, x1 = 0.0001312 | 0.04371 | –
293.15 K, x1 = 0.0001408 | 0.0468 | –
293.15 K, x1 = 0.0001441 | – | 0.986
293.15 K, x1 = 0.0001522 | 0.04969 | –
293.15 K, x1 = 0.0001622 | – | 0.988
293.15 K, x1 = 0.0001649 | 0.05162 | –
293.15 K, x1 = 0.0001802 | – | 0.989
293.15 K, x1 = 0.0001805 | 0.05366 | –
293.15 K, x1 = 0.0001982 | – | 0.992
293.15 K, x1 = 0.0001989 | 0.05581 | –
293.15 K, x1 = 0.0002162 | – | 0.993
293.15 K, x1 = 0.0002219 | 0.0586 | –
293.15 K, x1 = 0.0002326 | 0.05979 | –
293.15 K, x1 = 0.0002342 | – | 0.993
293.15 K, x1 = 0.0002441 | 0.06118 | –
293.15 K, x1 = 0.0002522 | – | 0.995
293.15 K, x1 = 0.0002575 | 0.06269 | –
293.15 K, x1 = 0.0002702 | – | 0.996
293.15 K, x1 = 0.000272 | 0.06419 | –
293.15 K, x1 = 0.0002889 | 0.06613 | –
298.15 K, x1 = 1.802e-05 | – | 0.853
298.15 K, x1 = 3.604e-05 | – | 0.854
298.15 K, x1 = 5.406e-05 | – | 0.855
298.15 K, x1 = 7.207e-05 | – | 0.856
298.15 K, x1 = 9.009e-05 | – | 0.857
298.15 K, x1 = 0.0001081 | – | 0.857
298.15 K, x1 = 0.0001261 | – | 0.858
298.15 K, x1 = 0.0001441 | – | 0.86
298.15 K, x1 = 0.0001622 | – | 0.862
298.15 K, x1 = 0.0001802 | – | 0.863
298.15 K, x1 = 0.0001982 | – | 0.864
298.15 K, x1 = 0.0002162 | – | 0.865
298.15 K, x1 = 0.0002342 | – | 0.866
298.15 K, x1 = 0.0002522 | – | 0.866
